According to patent US8664406B2, “Fluorescent probe compounds, preparation method and use thereof” (Dalian University of Technology, priority 2009, dated 2014):

Experiments:
[1] = pH range 4.9 to 7.7, aqueous solution, ionic strength 0.1
Method: The pHs of RHg1 aqueous solution and RHg1/Hg^2+ aqueous solution (ionic strength of 0.1, respectively) were adjusted to about 4.9, after measurement of fluorescence signal, a base solution was added slowly to adjust pH to 7.7, and the corresponding fluorescence signal change was measure, the results is shown in FIG. 3. […] The instrument is fluorospectrophotometer, model: LS 55.

[2] = RHg1 1 μM, sea water, Hg^2+ 1 to 5 ppb
Method: The application of the fluorescence probe of the present invention in sea water is described below. Namely, the probe is dissolved in an organic solvent or an organic solvent/water to form a probe solution. Some amount of the probe solution is added into the sea water sample containing Hg^2+ and the mixture is reacted for 10 to 30 min, and then fluorescence is detected.
The instrument is fluorospectrophotometer, model: LS 55.

[3] = RHg1 3 μM, L-cysteine 10 μM, Hg^2+ 1 μM
Method: The fluorescence of RHg1 (3 μM) was tested first, then the fluorescence of RHg1 after addition of L-cysteine (10 μM) or Hg^2+ (1 μM) was tested, and finally the fluorescence of the mixed solution containing RHg1, L-cysteine and Hg^2+ was tested. […] The instrument is Nikon eclipase TE 2000-5.

Hela cells = settings: 37° C., 30 min, RHg1 10 μM
Method: In order to investigate the ability of probe to track Hg^2+ in living cells, the following experiment is carried out. A neutral buffer containing the probe is added into cells, and then cells are incubated for 0.5 h in an incubator of 37° C. containing 5% CO2. The obtained cells are fully washed with the buffer or the culture medium and then imaged with fluorescent microscope to give a blank image. On the other hand, Hg(NO3)2 solution (final concentration is made to 10 μM) is added into the culture containing cells and the probe, and then cells are incubated for 0.5 h in an incubator of 37° C. containing 5% CO2. The obtained cells are washed with the culture medium and then imaged with fluorescent microscope to give an image showing intracellular distribution of Hg^2+, by which the information about the presence of Hg^2+ and regional distribution of Hg^2+ in cells is obtained.
The instrument is Nikon eclipase TE 2000-5.

[4] = probe 5 μM, ethanol/water=1/1 v/v; for fluorescence and UV-Vis absorption enhancement induced by Hg^2+: Hg^2+ 15 equivalence; for selectivity to Hg^2+: metal ions 50 equivalence (Hg^2+ 15 equivalence), without the interference from Na^+, K^+, Ca^2+, Mg^2+, Cu^2+ and so on
Method: The synthesized compound RHg1 was adopted to test the selectivity to Hg^2+. RHg1 (5 μM) was added into ethanol aqueous solution (ethanol/water=1/1, v/v) containing metal ion (50 equivalence, except that Hg^2+ is 15 equivalence), and then the fluorescence spectrum was tested with excitation wavelength of 510 nm and emission wavelength of 580 nm, the result is shown in FIG. 1.
The synthesized compound RHg2 was adopted to test the selectivity to Hg^2+. RHg2 (5 μM) was added into ethanol aqueous solution (ethanol/water=1/1, v/v) containing metal ion (50 equivalence, except that Hg^2+ is 15 equivalence), and then the fluorescence spectrum was tested, the result is shown in FIG. 10.
The synthesized compound RHg3 was adopted to test the selectivity to Hg^2+. RHg3 (5 μM) was added into ethanol aqueous solution (ethanol/water=1/1, v/v) containing metal ion (50 equivalence, except that Hg^2+ is 15 equivalence), and then the fluorescence spectrum was tested, the result is shown in FIG. 11.
The synthesized compound RHg4 was adopted to test the selectivity to Hg^2+. RHg4 (5 μM) was added into ethanol aqueous solution (ethanol/water=1/1, v/v) containing metal ion (50 equivalence, except that Hg^2+ is 15 equivalence), and then the fluorescence spectrum was tested, the result is shown in FIG. 12.
The synthesized compound RHg5 was adopted to test the selectivity to Hg^2+. RHg5 (5 μM) was added into ethanol aqueous solution (ethanol/water=1/1, v/v) containing metal ion (50 equivalence, except that Hg^2+ is 15 equivalence), and then the fluorescence spectrum was tested, the result is shown in FIG. 13.
The synthesized compound RHg6 was adopted to test the selectivity to Hg^2+. RHg6 (5 μM) was added into ethanol aqueous solution (ethanol/water=1/1, v/v) containing metal ion (50 equivalence, except that Hg^2+ is 15 equivalence), and then the fluorescence spectrum was tested, the result is shown in FIG. 14.
The synthesized compound RHg7 was adopted to test the selectivity to Hg^2+. RHg7 (5 μM) was added into ethanol aqueous solution (ethanol/water=1/1, v/v) containing metal ion (50 equivalence, except that Hg^2+ is 15 equivalence), and then the fluorescence spectrum was tested, the result is shown in FIG. 15.
The synthesized compound RHg8 was adopted to test the selectivity to Hg^2+. RHg8 (5 μM) was added into ethanol aqueous solution (ethanol/water=1/1, v/v) containing metal ion (50 equivalence, except that Hg^2+ is 15 equivalence), and then the fluorescence spectrum was tested, the result is shown in FIG. 16.
The synthesized compound RHg9 was adopted to test the selectivity to Hg^2+. RHg9 (5 μM) was added into ethanol aqueous solution (ethanol/water=1/1, v/v) containing metal ion (50 equivalence, except that Hg^2+ is 15 equivalence), and then the fluorescence spectrum was tested, the result is shown in FIG. 17.
The synthesized compound RHg10 was adopted to test the selectivity to Hg^2+. RHg10 (5 μM) was added into ethanol aqueous solution (ethanol/water=1/1, v/v) containing metal ion (50 equivalence, except that Hg^2+ is 15 equivalence), and then the fluorescence spectrum was tested, the result is shown in FIG. 18.

SMILES	fluorescence and UV-Vis absorption enhancement induced by Hg^2+ [4]	selectivity to Hg^2+ [4]	further results
CCN(CC)c1ccc2c(c1)Oc1cc(N(CC)CC)ccc1C21c2ccccc2C(=O)N1/N=C/C=N/c1ccccc1O [RHg1]	large fluorescence and UV-Vis absorption enhancement	good selectivity	effect of pH change on fluorescence emission [1]: nearly not effected; relationship between fluorescence intensity and Hg^2+ concentration [2]: good linear relationship; effect of L-cysteine on Hg^2+ detection [3]: little effects; fluorescence in living Hela cells without Hg^2+ (Hela cells): very weak; fluorescence in living Hela cells with Hg^2+ added (Hela cells; Hg^2+ 10 μM): very strong
CCN(CC)c1ccc2c(c1)Oc1cc(N(CC)CC)ccc1C21c2ccccc2C(=O)N1/N=C/C=N/c1ccccc1C [RHg2]	large fluorescence and UV-Vis absorption enhancement	good selectivity	
CCN(CC)c1ccc2c(c1)Oc1cc(N(CC)CC)ccc1C21c2ccccc2C(=O)N1/N=C/C=N/c1ccccc1 [RHg3]	large fluorescence and UV-Vis absorption enhancement	good selectivity	
CCN(CC)c1cc2c(cc1C)C1(c3ccc(N)cc3O2)c2ccccc2C(=O)N1/N=C/C=N/c1ccccc1 (stereo not shown) [RHg7]	large fluorescence and UV-Vis absorption enhancement	good selectivity	
CCN(CC)c1cc2c(cc1C)C1(c3ccc(N)cc3O2)c2ccccc2C(=O)N1/N=C/C=N/c1ccc(C#N)cc1 (stereo not shown) [RHg8]	large fluorescence and UV-Vis absorption enhancement	good selectivity	
CCN(CC)c1cc2c(cc1C)C1(c3ccc(N)cc3O2)c2ccccc2C(=O)N1/N=C/C=N/c1ccc(NC(C)=O)cc1 (stereo not shown) [RHg9]	large fluorescence and UV-Vis absorption enhancement	good selectivity	
CCN(CC)c1cc2c(cc1C)C1(c3ccc(N)cc3O2)c2ccccc2C(=O)N1/N=C/C=N/c1ccc(Nc2ccccc2)cc1 (stereo not shown) [RHg10]	large fluorescence and UV-Vis absorption enhancement	good selectivity	
CCN(CC)c1cc2c(cc1C)C1(c3ccc(N)cc3O2)c2ccccc2C(=O)N1/N=C/C=N/c1ccc(C(C)=O)cc1 (stereo not shown) [RHg11]	large fluorescence and UV-Vis absorption enhancement	good selectivity	
CCNc1cc2c(cc1C)C1(c3cc(C)c(NCC)cc3O2)c2ccccc2C(=O)N1/N=C/C=N/c1ccc(OC)cc1 [RHg13]	large fluorescence and UV-Vis absorption enhancement	good selectivity	
CCNc1cc2c(cc1C)C1(c3cc(C)c(NCC)cc3O2)c2ccccc2C(=O)N1/N=C/C=N/c1ccc(CCl)cc1 [RHg14]	large fluorescence and UV-Vis absorption enhancement	good selectivity	
CCNc1cc2c(cc1C)C1(c3cc(C)c(NCC)cc3O2)c2ccccc2C(=O)N1/N=C/C=N/c1ccc(C(=O)O)cc1 [RHg15]	large fluorescence and UV-Vis absorption enhancement	good selectivity	
CCNc1cc2c(cc1C)C1(c3cc(C)c(NCC)cc3O2)c2ccccc2C(=O)N1/N=C/C=N/c1ccc(Nc2ccccc2)cc1 [RHg17]	large fluorescence and UV-Vis absorption enhancement	good selectivity	
CCN(CC)c1ccc2c(c1)Oc1cc(N)ccc1C21c2ccccc2C(=O)N1/N=C/C=N/c1ccc(Br)cc1 (stereo not shown) [RHg18]	large fluorescence and UV-Vis absorption enhancement	good selectivity	
CCN(CC)c1ccc2c(c1)Oc1cc(N)ccc1C21c2ccccc2C(=O)N1/N=C/C=N/c1ccc(OC)cc1 (stereo not shown) [RHg19]	large fluorescence and UV-Vis absorption enhancement	good selectivity	
CCN(CC)c1ccc2c(c1)Oc1cc(N)ccc1C21c2ccccc2C(=O)N1/N=C/C=N/c1ccc(OCCOCCO)cc1 (stereo not shown) [RHg20]	large fluorescence and UV-Vis absorption enhancement	good selectivity	
Nc1ccc2c(c1)Oc1cc(N)ccc1C21c2ccccc2C(=O)N1/N=C/C=N/c1ccc(OCCOCCO)cc1 [RHg22]	large fluorescence and UV-Vis absorption enhancement	good selectivity	
Nc1ccc2c(c1)Oc1cc(N)ccc1C21c2ccccc2C(=O)N1/N=C/C=N/c1ccc(C(=O)O)cc1 [RHg23]	large fluorescence and UV-Vis absorption enhancement	good selectivity	
Nc1ccc2c(c1)Oc1cc(N)ccc1C21c2ccccc2C(=O)N1/N=C/C=N/c1ccc(Nc2ccccc2)cc1 [RHg24]	large fluorescence and UV-Vis absorption enhancement	good selectivity	
Cc1c(/N=C/C=N/N2C(=O)c3ccccc3C23c2ccc(N)cc2Oc2cc(N)ccc23)cccc1C(F)(F)F [RHg25]	large fluorescence and UV-Vis absorption enhancement	good selectivity	
